Measured values taken from US5066802A, “Process for preparing pyrido-benzothiazine derivatives having high antibacterial activity and high bioavailability to tissues” (Mediolanum Farmaceutici Srl., priority 1987, dated 1991).
In brackets after ≈: the same amount, converted by molar mass. Where a name gives a salt, the structure may show the parent alone.

Tests used:
Format in all cases: cell-based
Proteus 966 = experiment: agar dilution MIC, Proteus 966; details: Mueller-Hinton agar, 10^5 CFU per point, about 18 hrs, 37° C., read-out: Minimum Inhibitory Concentrations
Protocol: (§1) The antibacterial activity of the compounds according to the present invention was evaluated against pathogenic strains of recent clinical isolation, both gram positive and gram negative. Minimum inhibitory concentration (MIC) were determined by the diluition method in agar, using a multipoint inoculator (Denley Techn. Ltd. England). As a culture medium Mueller-Hinton agar (DIFCO) in Petri capsules was used.
(§2) The bacterial inoculum, originating from an overnight broth was inoculated by a multipoint and was standardized in such a way as to obtain 10^5 colony forming units (CFU) per point.
(§3) After about 18 hrs incubation in a thermostat at 37° C., the bacterial growth was evaluated on each plate.

Staphylococcus 7 = experiment: agar dilution MIC, Staphylococcus 7; details: Mueller-Hinton agar, 10^5 CFU per point, about 18 hrs, 37° C., read-out: Minimum Inhibitory Concentrations
Protocol: as §1, §2, §3

Staphylococcus 29 = experiment: agar dilution MIC, Staphylococcus 29; details: Mueller-Hinton agar, 10^5 CFU per point, about 18 hrs, 37° C., read-out: Minimum Inhibitory Concentrations
Protocol: as §1, §2, §3

E. coli 15 = experiment: agar dilution MIC, E. coli 15; details: Escherichia coli, Mueller-Hinton agar, 10^5 CFU per point, about 18 hrs, 37° C., read-out: Minimum Inhibitory Concentrations
Protocol: as §1, §2, §3

E. coli 963 = experiment: agar dilution MIC, E. coli 963; details: Escherichia coli, Mueller-Hinton agar, 10^5 CFU per point, about 18 hrs, 37° C., read-out: Minimum Inhibitory Concentrations
Protocol: as §1, §2, §3

Klebsiella 4 = experiment: agar dilution MIC, Klebsiella 4; details: Mueller-Hinton agar, 10^5 CFU per point, about 18 hrs, 37° C., read-out: Minimum Inhibitory Concentrations
Protocol: as §1, §2, §3

Klebsiella 5 = experiment: agar dilution MIC, Klebsiella 5; details: Mueller-Hinton agar, 10^5 CFU per point, about 18 hrs, 37° C., read-out: Minimum Inhibitory Concentrations
Protocol: as §1, §2, §3

Salmonella 9 = experiment: agar dilution MIC, Salmonella 9; details: Mueller-Hinton agar, 10^5 CFU per point, about 18 hrs, 37° C., read-out: Minimum Inhibitory Concentrations
Protocol: as §1, §2, §3

Salmonella 10 = experiment: agar dilution MIC, Salmonella 10; details: Mueller-Hinton agar, 10^5 CFU per point, about 18 hrs, 37° C., read-out: Minimum Inhibitory Concentrations
Protocol: as §1, §2, §3

Enterobacter 41 = experiment: agar dilution MIC, Enterobacter 41; details: Mueller-Hinton agar, 10^5 CFU per point, about 18 hrs, 37° C., read-out: Minimum Inhibitory Concentrations
Protocol: as §1, §2, §3

Enterobacter 2653 = experiment: agar dilution MIC, Enterobacter 2653; details: Mueller-Hinton agar, 10^5 CFU per point, about 18 hrs, 37° C., read-out: Minimum Inhibitory Concentrations
Protocol: as §1, §2, §3

Citrobacter 118 = experiment: agar dilution MIC, Citrobacter 118; details: Mueller-Hinton agar, 10^5 CFU per point, about 18 hrs, 37° C., read-out: Minimum Inhibitory Concentrations
Protocol: as §1, §2, §3

Proteus 25 = experiment: agar dilution MIC, Proteus 25; details: Mueller-Hinton agar, 10^5 CFU per point, about 18 hrs, 37° C., read-out: Minimum Inhibitory Concentrations
Protocol: as §1, §2, §3

Citrobacter 120 = experiment: agar dilution MIC, Citrobacter 120; details: Mueller-Hinton agar, 10^5 CFU per point, about 18 hrs, 37° C., read-out: Minimum Inhibitory Concentrations
Protocol: as §1, §2, §3

Staphylococcus 27 = experiment: agar dilution MIC, Staphylococcus 27; details: Mueller-Hinton agar, 10^5 CFU per point, about 18 hrs, 37° C., read-out: Minimum Inhibitory Concentrations
Protocol: as §1, §2, §3

Pseudomonas 19 = experiment: agar dilution MIC, Pseudomonas 19; details: Mueller-Hinton agar, 10^5 CFU per point, about 18 hrs, 37° C., read-out: Minimum Inhibitory Concentrations
Protocol: as §1, §2, §3

Pseudomonas 2437 = experiment: agar dilution MIC, Pseudomonas 2437; details: Mueller-Hinton agar, 10^5 CFU per point, about 18 hrs, 37° C., read-out: Minimum Inhibitory Concentrations
Protocol: as §1, §2, §3

SMILES	MIC (Proteus 966) [µg/mL]	MIC (Staphylococcus 7) [µg/mL]	MIC (Staphylococcus 29) [µg/mL]	MIC (E. coli 15) [µg/mL]	MIC (E. coli 963) [µg/mL]	MIC (Klebsiella 4) [µg/mL]	MIC (Klebsiella 5) [µg/mL]	MIC (Salmonella 9) [µg/mL]	MIC (Salmonella 10) [µg/mL]	MIC (Enterobacter 41) [µg/mL]	MIC (Enterobacter 2653) [µg/mL]	MIC (Citrobacter 118) [µg/mL]	MIC (Proteus 25) [µg/mL]	MIC (Citrobacter 120) [µg/mL]	MIC (Staphylococcus 27) [µg/mL]	MIC (Pseudomonas 19) [µg/mL]	MIC (Pseudomonas 2437) [µg/mL]
CCNCC1CCN(c2c(F)cc3c(=O)c(C(=O)O)cn4c3c2OCC4C)C1 (stereo not drawn) [E.P. 0106489 ex. 20, reference compound]	2 (≈ 5.14 µM)	0.25 (≈ 0.642 µM)	0.5 (≈ 1.28 µM)	0.5 (≈ 1.28 µM)	2 (≈ 5.14 µM)	0.5 (≈ 1.28 µM)	2 (≈ 5.14 µM)	1 (≈ 2.57 µM)	1 (≈ 2.57 µM)	1 (≈ 2.57 µM)	0.25 (≈ 0.642 µM)	4 (≈ 10.3 µM)	1 (≈ 2.57 µM)	2 (≈ 5.14 µM)	0.25 (≈ 0.642 µM)	64 (≈ 164 µM)	128 (≈ 329 µM)
CCNCC1CCN(c2c(F)cc3c(=O)c(C(=O)O)cn4c3c2SCC4C)C1 (stereo not drawn) [ex. 1, 10-3-[(ethylamino)methyl]1-pyrrolidinyl]-9 fluoro-2,3-dihydro-3-methyl-7-oxo-7H-pyrido [1,2,3 de][1,4]benzothiazine-6-carboxylic acid hydrochloride]	4	0.12	0.25	0.5	2	0.25	2	0.5	0.5	0.5	0.25	2	4	4	0.25	32	64
CCNCC1CCN(c2c(F)cc3c(=O)c(C(=O)O)cn4c3c2SCC4)C1 (stereo not drawn) [ex. 2, 10-[3[(ethylamino)methyl]-1-pyrrolidinyl]-9-fluoro-2,3-dihydro-7-oxo-7H-pyr ido [1,2,3 de][1,4]benzothiazine-6-carboxylic acid hydrochloride]	8	1	2	2	8	2	8	4	2	4	1	8	8	8	8	128	> 128
